How the values of data set [1] were obtained: Liver Microsomal Stability Protocol
Test compounds and one control compound (verapamil) were tested in 3 different species in duplicate sets.
Test compound concentration: 1 uM; Protein concentration: 0.5 mg/mL (for dog, rat, and human liver microsomes); Cofactor: NADPH-Regenerating system (NRS) solution; Time-points: 2, 12, 25, 45, and 65 minutes.
Reaction composition (in each incubation well) contains:
After plates were vortexed, they were centrifuged for 30 minutes to remove proteins. About 100 μL supernatant was removed to a new plate and diluted with 150 μL water. About 20 μL of the mixture was injected into LC/MS/MS system to monitor the compound's response. In vitro measured t1/2 was used to calculate Clint values.

In data set [2] the test system is HIV-1 (IIIB) in MT-4 cells. The experiment in a line: MT-4 HIV assay. The format is cell-based. The note with it: Human immunodeficiency virus 1, MT4, 120 h. Put shortly:
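MT-4 cells infected with HIV-1 IIIB (1:250 stock dilution) were incubated with 1:3 serially diluted compounds in RPMI with 10% FBS for 5 days at 37 °C. Cell Titer Glo luminescence was the readout. Plates included mock-infected wells, no-drug wells and 5 uM AZT controls.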

[3] abbreviates: human liver microsomes 0.5 mg/mL, 1 uM compound, NADPH.
[4] abbreviates: rat liver microsomes 0.5 mg/mL, 1 uM compound, NADPH.
Where [5] appears, read: HIV-1 (IIIB), MT-4 cells, 5 days, Cell Titer Glo, read-out: EC50.

pEC50: −log10 of the molar value. Where two headings read alike, the source gives them in different places.

As for `COC(=O)N[C@H](C(=O)N[C@@H](Cc1ccc(-c2cnn(C(F)F)c2)cc1)[C@@H](O)CN(Cc1c(F)cc(-c2ccn(C(F)F)n2)cc1F)NC(=O)[C@@H](NC(=O)OC)C(C)(C)C(F)(F)F)C(C)(C)C(F)(F)F` [Example 209, Methyl ((5S,8S,9S,14S)-11-(4-(1-(difluoromethyl)-1H-pyrazol-3-yl)-2,6-difluorobenzyl)-8-(4-(1-(difluoromethyl)-1H-pyrazol-4-yl)benzyl)-16,16,16-trifluoro-9-hydroxy-15,15-dimethyl-3,6,13-trioxo-5-(1,1,1-trifluoro-2-methylpropan-2-yl)-2-oxa-4,7,11,12-tetraazahexadecan-14-yl)carbamate], the “Human Pred Cl.” value in data set [1] (setting [3]) is on record as 1.12 L/H/kg. In addition, the “Rat. Pred. Cl.” value in data set [1] (setting [4]) is listed as 1.21 L/H/kg. The compound also showed a pEC50 in data set [2] of 8.50.
For the compound `COC(=O)N[C@H](C(=O)N[C@@H](Cc1ccc(C#Cc2ccc(N3CC4(C3)CN(C3COC3)C4)nc2)cc1)[C@@H](O)CN(Cc1c(F)cc(-c2ccn(C(F)F)n2)cc1F)NC(=O)[C@@H](NC(=O)OC)C(C)(C)C(F)(F)F)C(C)(C)C(F)(F)F` [Example 163, Methyl ((5S,8S,9S,14S)-11-(4-(1-(difluoromethyl)-1H-pyrazol-3-yl)-2,6-difluorobenzyl)-16,16,16-trifluoro-9-hydroxy-15,15-dimethyl-8-(4-((6-(6-(oxetan-3-yl)-2,6-diazaspiro[3.3]heptan-2-yl)pyridin-3-yl)ethynyl)benzyl)-3,6,13-trioxo-5-(1,1,1-trifluoro-2-methylpropan-2-yl)-2-oxa-4,7,11,12-tetraazahexadecan-14-yl)carbamate], in data set [1] (setting [3]), the “Human Pred Cl.” value is on record as less than 0.11 L/H/kg. In addition, the pEC50 in data set [2] is 8.63.
As for `COC(=O)N[C@H](C(=O)N[C@@H](Cc1ccc(C#Cc2ccc(N3CCN(C4CCOC4)CC3)nc2)cc1)[C@@H](O)CN(Cc1c(F)cc(-c2cnn(C(F)F)c2)cc1F)NC(=O)[C@@H](NC(=O)OC)C(C)(C)C(F)(F)F)C(C)(C)C(F)(F)F` (stereo partly drawn) [Example 114, Methyl ((5S,8S,9S,14S)-11-(4-(1-(difluoromethyl)-1H-pyrazol-4-yl)-2,6-difluorobenzyl)-16,16,16-trifluoro-9-hydroxy-15,15-dimethyl-3,6,13-trioxo-8-(4-((6-(4-(tetrahydrofuran-3-yl)piperazin-1-yl)pyridin-3-yl)ethynyl)benzyl)-5-(1,1,1-trifluoro-2-methylpropan-2-yl)-2-oxa-4,7,11,12-tetraazahexadecan-14-yl)carbamate], the “Human Pred Cl.” value in data set [1] (setting [3]) was less than 0.11 L/H/kg. In addition, in data set [1] (setting [4]), the “Rat. Pred. Cl.” value amounted to 0.28 L/H/kg. Moreover, the negative logarithm of the EC50 (pEC50) in data set [2] (setting [5]) is 8.29.
On to `COC(=O)N[C@H](C(=O)N[C@@H](Cc1ccc(C#Cc2ccc(N3CC4CCC(C3)N4C3COC3)nc2)cc1)[C@@H](O)CN(Cc1c(F)cc(-c2ccc(N3CC4CCC(C3)N4C3COC3)nc2)cc1F)NC(=O)[C@@H](NC(=O)OC)C(C)(C)C(F)(F)F)C(C)(C)C(F)(F)F` [Example 147, Methyl ((5S,8S,9S,14S)-11-(2,6-difluoro-4-(6-(8-(oxetan-3-yl)-3,8-diazabicyclo[3.2.1]octan-3-yl)pyridin-3-yl)benzyl)-16,16,16-trifluoro-9-hydroxy-15,15-dimethyl-8-(4-((6-(8-(oxetan-3-yl)-3,8-diazabicyclo [3.2.1]octan-3-yl)pyridin-3-yl)ethynyl)benzyl)-3,6,13-trioxo-5-(1,1,1-trifluoro-2-methylpropan-2-yl)-2-oxa-4,7,11,12-tetraazahexadecan-14-yl)carbamate], for which, in data set [1] (human, microsomes), the “Human Pred Cl.” value is less than 0.11 L/H/kg. Moreover, in data set [2] (setting [5]), the pEC50 was 8.17.
As to `COC(=O)N[C@H](C(=O)NN(Cc1c(F)cc(-c2ncccn2)cc1F)C[C@H](O)[C@H](Cc1ccc(C#Cc2ccc(N3C[C@H]4C[C@@H]3CN4C3COC3)nc2)cc1)NC(=O)[C@@H](NC(=O)OC)C(C)(C)C(F)(F)F)C(C)(C)C` [Example 95], the “Human Pred Cl.” value in data set [1] (setting [3]) came out at 0.38 L/H/kg. For the same compound, in data set [1] (setting [4]), the “Rat. Pred. Cl.” value is 1.39 L/H/kg. In data set [2], this compound had a negative-log EC50 (pEC50) of 8.61.
As for `COC(=O)N[C@H](C(=O)N[C@@H](Cc1ccc(C#Cc2ccc(N3CC[N+]4([O-])CCOC[C@H]4C3)nc2)cc1)[C@@H](O)CN(Cc1c(F)cc(-c2ccn(C(F)F)n2)cc1F)NC(=O)[C@@H](NC(=O)OC)C(C)(C)C(F)(F)F)C(C)(C)C(F)(F)F` (stereo partly drawn) [Example 52, (9aR)-8-(5-((4-((2S,3S)-4-(1-(4-(1-(difluoromethyl)-1H-pyrazol-3-yl)-2,6-difluorobenzyl)-2-((S)-4,4,4-trifluoro-2-((methoxycarbonyl)amino)-3,3-dimethylbutanoyl)hydrazinyl)-3-hydroxy-2-((S)-4,4,4-trifluoro-2-((methoxycarbonyl)amino)-3,3-dimethylbutanamido)butyl)phenyl)ethynyl)pyridin-2-yl)octahydro-5H-pyrazino[2,1-c][1,4]oxazine 5-oxide], the “Human Pred Cl.” value in data set [1] (setting [3]) is 0.14 L/H/kg. Also, the “Rat. Pred. Cl.” value in data set [1] (setting [4]) was less than 0.18 L/H/kg. The pEC50 in data set [2] (setting [5]) is 8.09.
`COC(=O)N[C@H](C(=O)N[C@@H](Cc1ccc(-c2ccc(N3CC4CCC(C3)N4C3COC3)nc2)cc1)[C@@H](O)CN(Cc1c(F)cc(-c2ccc(N3CC4CCC(C3)N4C3COC3)nc2)cc1F)NC(=O)[C@@H](NC(=O)OC)C(C)(C)C(F)(F)F)C(C)(C)C(F)(F)F` [Example 203, Methyl ((5S,8S,9S,14S)-11-(2,6-difluoro-4-(6-(8-(oxetan-3-yl)-3,8-diazabicyclo [3.2.1]octan-3-yl)pyridin-3-yl)benzyl)-16,16,16-trifluoro-9-hydroxy-15,15-dimethyl-8-(4-(6-(8-(oxetan-3-yl)-3,8-diazabicyclo[3.2.1]octan-3-yl)pyridin-3-yl)benzyl)-3,6,13-trioxo-5-(1,1,1-trifluoro-2-methylpropan-2-yl)-2-oxa-4,7,11,12-tetraazahexadecan-14-yl)carbamate]: in data set [1] (human, microsomes), the “Human Pred Cl.” value came to 0.32 L/H/kg. In data set [1] (rat, microsomes), the “Rat. Pred. Cl.” value is 1.09 L/H/kg. Further, the negative logarithm of the EC50 (pEC50) in data set [2] (setting [5]) is 8.30.
On to `COC(=O)N[C@H](C(=O)N[C@@H](Cc1ccc(C#Cc2cnc(N3CCN(C4COC4)CC3)nc2)cc1)[C@@H](O)CN(Cc1c(F)cc(-c2cnn(C(F)F)c2)cc1F)NC(=O)[C@@H](NC(=O)OC)C(C)(C)C(F)(F)F)C(C)(C)C(F)(F)F` [Example 103, Methyl ((5S,8S,9S,14S)-11-(4-(1-(difluoromethyl)-1H-pyrazol-4-yl)-2,6-difluorobenzyl)-16,16,16-trifluoro-9-hydroxy-15,15-dimethyl-8-(4-((2-(4-(oxetan-3-yl)piperazin-1-yl)pyrimidin-5-yl)ethynyl)benzyl)-3,6,13-trioxo-5-(1,1,1-trifluoro-2-methylpropan-2-yl)-2-oxa-4,7,11,12-tetraazahexadecan-14-yl)carbamate], for which the “Human Pred Cl.” value in data set [1] (setting [3]) came to 0.16 L/H/kg. Also, in data set [1] (setting [4]), the “Rat. Pred. Cl.” value worked out at 0.32 L/H/kg. Besides, in data set [2] (setting [5]), the pEC50 is 8.32.
On to `COC(=O)N[C@H](C(=O)N[C@@H](Cc1ccc(C#Cc2ccc(N3CCN(C4COC4)CC3)nc2)cc1)[C@@H](O)CN(Cc1c(F)cc(-c2ccc(F)cn2)cc1F)NC(=O)[C@@H](NC(=O)OC)C(C)(C)C(F)(F)F)C(C)(C)C(F)(F)F` [Example 97, Methyl ((5S,8S,9S,14S)-11-(2,6-difluoro-4-(5-fluoropyridin-2-yl)benzyl)-16,16,16-trifluoro-9-hydroxy-15,15-dimethyl-8-(4-((6-(4-(oxetan-3-yl)piperazin-1-yl)pyridin-3-yl)ethynyl)benzyl)-3,6,13-trioxo-5-(1,1,1-trifluoro-2-methylpropan-2-yl)-2-oxa-4,7,11,12-tetraazahexadecan-14-yl)carbamate], for which the “Human Pred Cl.” value in data set [1] (setting [3]) is 0.46 L/H/kg. Moreover, in data set [1] (setting [4]), the “Rat. Pred. Cl.” value came to 0.31 L/H/kg. For the same compound, the pEC50 in data set [2] is 8.34.
As for `COC(=O)N[C@H](C(=O)N[C@@H](Cc1ccc(C#Cc2ccc(N3CC4CC(C3)N4C3COC3)nc2)cc1)[C@@H](O)CN(Cc1c(F)cc(-c2ccccn2)cc1F)NC(=O)[C@@H](NC(=O)OC)C(C)(C)C(F)(F)F)C(C)(C)C(F)(F)F` [Example 175, Methyl ((5S,8S,9S,14S)-11-(2,6-difluoro-4-(pyridin-2-yl)benzyl)-16,16,16-trifluoro-9-hydroxy-15,15-dimethyl-8-(4-((6-(6-(oxetan-3-yl)-3,6-diazabicyclo[3.1.1]heptan-3-yl)pyridin-3-yl)ethynyl)benzyl)-3,6,13-trioxo-5-(1,1,1-trifluoro-2-methylpropan-2-yl)-2-oxa-4,7,11,12-tetraazahexadecan-14-yl)carbamate], in data set [1] (human, microsomes), the “Human Pred Cl.” value was 0.67 L/H/kg. Further, in data set [1] (rat, microsomes), the “Rat. Pred. Cl.” value stood at 0.7 L/H/kg. The negative-log EC50 (pEC50) in data set [2] (setting [5]) was 8.66.
`COC(=O)N[C@H](C(=O)N[C@@H](Cc1ccc(-c2ccc3nc(N4CC5CCC(C4)N5C4COC4)ccc3n2)cc1)[C@@H](O)CN(Cc1c(F)cc(-c2ccn(C(F)F)n2)cc1F)NC(=O)[C@@H](NC(=O)OC)C(C)(C)C(F)(F)F)C(C)(C)C(F)(F)F` [Example 200, Methyl ((5S,8S,9S,14S)-11-(4-(1-(difluoromethyl)-1H-pyrazol-3-yl)-2,6-difluorobenzyl)-16,16,16-trifluoro-9-hydroxy-15,15-dimethyl-8-(4-(6-(8-(oxetan-3-yl)-3,8-diazabicyclo[3.2.1]octan-3-yl)-1,5-naphthyridin-2-yl)benzyl)-3,6,13-trioxo-5-(1,1,1-trifluoro-2-methylpropan-2-yl)-2-oxa-4,7,11,12-tetraazahexadecan-14-yl)carbamate]: the “Human Pred Cl.” value in data set [1] (human, microsomes) was less than 0.11 L/H/kg. For the same compound, in data set [1] (rat, microsomes), the “Rat. Pred. Cl.” value stood at 0.19 L/H/kg. In addition, the negative logarithm of the EC50 (pEC50) in data set [2] (setting [5]) is 8.36.

Values taken from patent US10294234B2, “HIV inhibitor compounds” (priority 2017, dated 2019).
